Legend:
[1] = biological target: T1, FimHL (Escherichia coli, UniProt P08191); experiment: Differential scanning fluorimetry (DSF) with purified FimHL; format: binding; conditions: FimHL 10 μM with mannoside 100 μM, SYPRO Orange, HEPES pH 7.5; Tm from Boltzmann fit
T1 construct: Purified FimHL (10 μM) in the absence or presence of mannoside (100 μM)
Procedure: Purified FimHL (10 μM) in the absence or presence of mannoside (100 μM) was combined with 5×SYPRO Orange in a 50 μl reaction mixture buffered in 20 mM HEPES pH 7.5, 150 mM NaCl (HBS) and 0.4% DMSO. Binding equilibria were established by allowing the reaction mixtures to incubate at 23° C. for 30 min. These reaction mixtures were then placed in 96-well clear-bottom PCR plates and subjected to a melt curve from 20-90° C. in 0.5° C. increments of 15 seconds, each followed by a fluorescence read of the “HEX” channel in a Bio-Rad CFX96 thermocycler (Bio-Rad, Hercules, Calif.). Melt curves were fitted to the Boltzmann equation (y=A2+(A1−A2)/(1+exp((x−xo)/dx)) where xo is the Tm) to determine the melting temperature (Tm) using GraphPad Prism 6 (San Diego Calif.). Melting temperatures are represented as the mean and standard error of two biological replicates, each of which consisted of three technical replicates. Compounds not listed were not tested.

[2] = system: UTI89 bacteria; experiment: Biofilm inhibition assay with UTI89 bacteria; format: cell-based; conditions: read-out: Biofilm prevention IC50
Procedure: The biofilm inhibition assay was performed with UTI89 bacteria as previously described (L. Cegelski, J. S. Pinkner, N. D. Hammer, C. K. Cusumano, C. S. Hung, E. Chorell, V. Aberg, J. N. Walker, P. C. Seed, F. Almqvist, M. R. Chapman, S. J. Hultgren Nature Chem. Biol. 2009, 5, 913-919). Compounds not listed were not tested.

[3] = biological target: T2, FimH (Escherichia coli, UniProt Q1R2J4); format: cell-based; conditions: concentration reducing bacterial agglutination of guinea pig red blood cells by greater than 90%; UTI89 bacteria
T2 construct: performed with UTI89 bacteria and guinea pig red blood cells; endogenous in cells; host or cells: UTI89 bacteria (whole cells, type 1 piliated)
Procedure: The hemagglutination inhibition (HAI) assay was performed with UTI89 bacteria and guinea pig red blood cells, as previously described (S. J. Hultgren, W. R. Schwan, A. J. Schaeffer, J. L. Duncan Infect. Immun. 1986, 54, 613-620).

| SMILES | DSF Melting Temp [1] | IC50 [2] | HAI titer EC>90 [3] |
| --- | --- | --- | --- |
| Cc1cc(-c2ccc3cc[nH]c(=O)c3c2)ccc1[C@@H](O)[C@H]1O[C@H](CO)[C@@H](O)[C@H](O)[C@@H]1O [Example 2, 7-(4-((R)-hydroxy((2R,3S,4S,5S,6R)-3,4,5-trihydroxy-6-(hydroxymethyl)tetrahydro-2H-pyran-2-yl)methyl)-3-methylphenyl)isoquinolin-1 (2H)-one] | 77.5 °C | 30 nM | 0.006 µM |
| Cc1cc(-c2ccc3c(c2)C(=O)NCC3)ccc1[C@@H](O)[C@H]1O[C@H](CO)[C@@H](O)[C@H](O)[C@@H]1O [Example 4, 7-(4-((R)-hydroxy((2R,3S,4S,5S,6R)-3,4,5-trihydroxy-6-(hydroxymethyl)tetrahydro-2H-pyran-2-yl)methyl)-3-methylphenyl)-3,4-dihydroisoquinolin-1 (2H)-one] | 76.06 °C | 40 nM | 0.008 µM |
| Cc1cc(-c2ccc3ccnc(N)c3c2)ccc1[C@@H](O)[C@H]1O[C@H](CO)[C@@H](O)[C@H](O)[C@@H]1O [Example 3, (2R,3S,4S,5S,6R)-2-((R)-(4-(1-aminoisoquinolin-7-yl)-2-methylphenyl)(hydroxy)methyl)-6-(hydroxymethyl)tetrahydro-2H-pyran-3,4,5-triol] | 77.7 °C | 40 nM | 0.006 µM |
| Cc1cc(-c2cccc3cnccc23)ccc1[C@@H](O)[C@H]1O[C@H](CO)[C@@H](O)[C@H](O)[C@@H]1O [Example 1, (2R,3S,4S,5S,6R)-2-((R)-hydroxy(4-(isoquinolin-5-yl)-2-methylphenyl)methyl)-6-(hydroxymethyl)tetrahydro-2H-pyran-3,4,5-triol] | 74.6 °C | 600 nM | 0.125 µM |
| CNC(=O)c1cc(C(=O)NC)cc(-c2ccc([C@@H](O)[C@H]3O[C@H](CO)[C@@H](O)[C@H](O)[C@@H]3O)c(C)c2)c1 [Example 38, 4′-((R)-Hydroxy ((2R,3S,4S,5S,6R)-3,4,5-trihydroxy-6-(hydroxymethyl)-tetrahydro-2H-pyran-2-yl)methyl)-N^3,N^5,3′-trimethylbiphenyl-3,5-dicarboxamide] | – | – | 0.007 µM |

Reference: US20200002303A1, “C-GLYCOSIDE COMPOUNDS USEFUL FOR TREATING DISEASE” (Fimbrion Therapeutics, Inc., priority 2016, published 2020)
